According to patent publication US11542256B2, “Vinylheterocycles as Rho-associated coiled-coil kinase (ROCK) inhibitors” (ANGION BIOMEDICA CORP., priority 2017, dated 2023):

Assays:
[1] = target: T1, ROCK1 (Homo sapiens, UniProt Q13464); experiment: KINOMEscan KdELECT kinase binding assay, ROCK1; details: equilibrium dissociation constant, 11-point 3-fold dilution series
T1 construct: purchased DiscoverX (KINOMEscan KdELECT service); host or cells: E. coli BL21-derived (T7 phage) or HEK-293
Protocol: (§1) The ROCK1 and ROCK2 kinase binding affinities of compounds in this invention were determined by DiscoverX's KINOMEscan™ KdELECT technology (https://www.discoverx.com/kinomescan-elect-kinase-screening-and-profiling-services): Kinase-tagged T7 phage strains were prepared in an E. coli host derived from the BL21 strain. E. coli were grown to log-phase and infected with T7 phage and incubated with shaking at 32° C. until lysis. The lysates were centrifuged and filtered to remove cell debris. The remaining kinases were produced in HEK-293 cells and subsequently tagged with DNA for qPCR detection. Streptavidin-coated magnetic beads were treated with biotinylated small molecule ligands for 30 minutes at room temperature to generate affinity resins for kinase assays. The liganded beads were blocked with excess biotin and washed with blocking buffer (SeaBlock (Pierce), 1% BSA, 0.05% Tween 20, 1 mM DTT) to remove unbound ligand and to reduce nonspecific binding. […] Test compounds were prepared as […] in 100% DMSO. Kds were determined using an […] 3-fold compound dilution series with three DMSO control points. […] The compounds were then diluted directly into the assays such that the final concentration of DMSO was 0.9%. All reactions performed in polypropylene 384-well plate. Each was a final volume of 0.02 ml. […] The kinase concentration in the eluates was measured by qPCR.

[2] = target: T2, ROCK2 (Homo sapiens, UniProt O75116); experiment: KINOMEscan KdELECT kinase binding assay, ROCK2; details: equilibrium dissociation constant, 11-point 3-fold dilution series
T2 construct: purchased DiscoverX (KINOMEscan KdELECT service); host or cells: E. coli BL21-derived (T7 phage) or HEK-293
T2 sequence (O75116 whole entry): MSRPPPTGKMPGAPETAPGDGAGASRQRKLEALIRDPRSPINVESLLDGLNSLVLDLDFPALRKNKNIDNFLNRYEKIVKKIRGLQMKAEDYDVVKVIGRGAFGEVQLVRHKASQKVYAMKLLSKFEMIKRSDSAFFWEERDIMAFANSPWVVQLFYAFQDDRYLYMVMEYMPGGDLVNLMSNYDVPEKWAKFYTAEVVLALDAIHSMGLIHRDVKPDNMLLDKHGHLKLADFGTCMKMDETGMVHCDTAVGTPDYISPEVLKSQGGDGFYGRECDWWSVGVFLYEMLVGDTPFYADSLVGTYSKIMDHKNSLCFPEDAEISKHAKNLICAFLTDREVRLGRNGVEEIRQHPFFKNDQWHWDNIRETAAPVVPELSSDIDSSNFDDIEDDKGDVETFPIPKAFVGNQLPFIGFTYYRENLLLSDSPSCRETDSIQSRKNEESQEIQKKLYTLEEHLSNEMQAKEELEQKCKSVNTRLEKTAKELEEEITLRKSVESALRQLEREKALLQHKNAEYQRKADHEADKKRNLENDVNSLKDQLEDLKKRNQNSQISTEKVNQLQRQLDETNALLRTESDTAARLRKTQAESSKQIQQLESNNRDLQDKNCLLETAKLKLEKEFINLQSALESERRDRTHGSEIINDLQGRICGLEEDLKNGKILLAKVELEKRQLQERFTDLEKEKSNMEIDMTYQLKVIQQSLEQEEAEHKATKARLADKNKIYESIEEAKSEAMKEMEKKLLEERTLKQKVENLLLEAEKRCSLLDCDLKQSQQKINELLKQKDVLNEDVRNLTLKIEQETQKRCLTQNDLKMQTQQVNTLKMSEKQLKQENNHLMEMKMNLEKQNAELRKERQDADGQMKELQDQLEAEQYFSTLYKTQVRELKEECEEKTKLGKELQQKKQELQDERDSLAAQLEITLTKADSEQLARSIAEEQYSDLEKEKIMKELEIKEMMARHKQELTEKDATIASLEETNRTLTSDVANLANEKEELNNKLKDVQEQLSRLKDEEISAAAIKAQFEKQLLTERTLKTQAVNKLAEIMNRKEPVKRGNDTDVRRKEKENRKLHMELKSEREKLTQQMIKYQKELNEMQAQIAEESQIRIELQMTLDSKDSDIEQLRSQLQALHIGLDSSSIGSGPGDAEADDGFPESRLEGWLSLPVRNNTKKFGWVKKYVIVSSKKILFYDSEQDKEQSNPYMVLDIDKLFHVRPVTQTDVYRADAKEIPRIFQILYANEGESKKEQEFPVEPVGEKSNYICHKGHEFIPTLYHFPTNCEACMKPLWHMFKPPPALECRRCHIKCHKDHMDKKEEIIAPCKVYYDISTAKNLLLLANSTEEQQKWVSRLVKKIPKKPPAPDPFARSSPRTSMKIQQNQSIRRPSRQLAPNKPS
Protocol: as §1

[3] = test system: male CD-1 mice; experiment: Mean arterial pressure after bile duct ligation in CD-1 mice; format: in vivo; details: BDL CD-1 mice, 10 mg/kg orally BID for 10 days, carotid catheter under isoflurane
Protocol: The experiments were performed on male CD-1 mice (10-11 week-old), purchased from Charles River Laboratories, MA. After arrival, the animals were housed in the Angion Biomedica animal care facility and allowed 5 days for acclimatization in room having an ambient temperature of 23±2° C. and 12 hr dark/light cycle. The animals were fed normal rodent chow and tap water was provided ad libitum. All the animal experimental protocols were approved by the Institutional Animal Care and Use Committee at the Angion Biomedica.
For bile duct ligation (BDL), we performed midline laparotomy of a length of approximately 1.5-2 cm by cutting the cutis plus fascia with a blunt end surgical scissor. The bile duct was then exposed by caudal movement of the gut. […] Animals were allowed to recover under heating pads and were monitored closely for signs of discomfort or pain.
After 24 hrs of bile duct ligation, the CD-1 mice (N=8-10 per group,) were treated with normal saline as vehicle and the Fasudil (10 mg/kg/body weight) and Compound of Ex. 1 (10 mg/kg body weight) groups were treated orally (BID) for 10 days. […] After 10 days of treatment, animals were anesthetized and mean arterial pressure was measured.
Mice were anaesthetized using isoflurane. […] The animals were maintained on heating pads throughout the surgery and temperature was recorded by inserting a temperature probe in the rectum. […]

[4] = test system: BDL model, adult male C57BLU6 mice; experiment: Biliary obstruction model (bile duct ligation, BDL); format: in vivo; details: 10 mg/kg PO BID; for MAP (mean arterial pressure) versus sham and BDL+vehicle: BDL C57BLU6 mice, day 9, FIG. 1
Protocol: Adult male C57BLU6 mice were submitted to standard bile duct ligation (BDL model: Luo, W., Meng, Y., Ji, H. L., Pan, C. Q., Huang, S., Yu, C. H., Xiao, L. M., Cui, K., Ni, S. Y., Zhang, Z. S., Li, X. Spironolactone lowers portal hypertension by inhibiting liver fibrosis, ROCK-2 activity and activating NO/PKG pathway in the bile-duct-ligated rat. PLoS One 2012, 7(3), e34230) and treated with vehicle (n=7; 50% PEG300+10% tween 80+40% saline, the formulation for Ex. 1) or Ex. 1 (n=3; 10 mg/kg, PO, BID), starting a day after BDL surgery. In this study, animals were sacrificed 9 days after BDL. A subset of BDL animals was treated with fasudil (n=2; 10 mg/kg, PO, BID) to compare hemodynamic effects (on day 9) of a ROCK2-selective inhibitor vs. a dual ROCK1/2 inhibitor in this model of liver injury/disease. A sham group served as control.
The BDL model is a model of cholestatic injury and is associated with both inflammation and biliary sclerosis. This was evident even by day 9 in the BDL+vehicle-treated cohort (p<0.01 vs. sham). […] Treatment with a compound of the invention was also associated with a reduction in biliary inflammation (H&E sections, FIG. 4A) and the necro-inflammatory score (FIG. 4B).

T1 sequence (Q13464 whole entry): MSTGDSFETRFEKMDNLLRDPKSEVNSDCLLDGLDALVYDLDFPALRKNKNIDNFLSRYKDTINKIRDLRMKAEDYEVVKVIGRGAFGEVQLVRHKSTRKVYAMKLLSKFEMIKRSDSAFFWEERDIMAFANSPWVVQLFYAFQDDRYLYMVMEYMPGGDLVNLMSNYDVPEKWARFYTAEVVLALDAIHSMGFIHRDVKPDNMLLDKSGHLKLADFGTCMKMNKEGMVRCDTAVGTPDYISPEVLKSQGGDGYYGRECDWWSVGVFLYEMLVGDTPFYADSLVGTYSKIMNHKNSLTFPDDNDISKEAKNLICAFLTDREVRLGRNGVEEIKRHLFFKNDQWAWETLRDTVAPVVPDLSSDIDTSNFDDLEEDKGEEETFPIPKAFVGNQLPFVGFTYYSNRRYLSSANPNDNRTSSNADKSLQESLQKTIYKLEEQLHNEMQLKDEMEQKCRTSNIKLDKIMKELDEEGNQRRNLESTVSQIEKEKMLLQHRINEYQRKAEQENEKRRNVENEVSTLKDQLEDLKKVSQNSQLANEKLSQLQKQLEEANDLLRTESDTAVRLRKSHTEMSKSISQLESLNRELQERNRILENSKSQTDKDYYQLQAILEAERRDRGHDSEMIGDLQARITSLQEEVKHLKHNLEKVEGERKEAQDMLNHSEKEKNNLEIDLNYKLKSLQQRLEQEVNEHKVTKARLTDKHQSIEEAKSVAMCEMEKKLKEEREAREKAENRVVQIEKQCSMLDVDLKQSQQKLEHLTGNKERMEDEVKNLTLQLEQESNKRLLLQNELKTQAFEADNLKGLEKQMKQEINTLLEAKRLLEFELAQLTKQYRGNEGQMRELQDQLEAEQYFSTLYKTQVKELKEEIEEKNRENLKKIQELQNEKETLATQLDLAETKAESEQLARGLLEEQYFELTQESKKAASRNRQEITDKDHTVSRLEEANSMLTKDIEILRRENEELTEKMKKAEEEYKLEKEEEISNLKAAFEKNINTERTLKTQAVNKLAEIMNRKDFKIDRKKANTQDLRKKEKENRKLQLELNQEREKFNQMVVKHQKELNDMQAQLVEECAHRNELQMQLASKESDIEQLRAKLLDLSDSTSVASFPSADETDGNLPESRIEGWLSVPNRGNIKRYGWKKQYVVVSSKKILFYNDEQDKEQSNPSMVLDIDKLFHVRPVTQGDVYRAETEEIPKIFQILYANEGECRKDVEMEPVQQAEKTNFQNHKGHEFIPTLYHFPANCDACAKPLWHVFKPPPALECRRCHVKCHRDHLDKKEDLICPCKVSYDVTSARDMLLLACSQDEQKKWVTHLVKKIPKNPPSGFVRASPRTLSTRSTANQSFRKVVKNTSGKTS

Row | Kd [1] [nM] | Kd [2] [nM] | MAP (mean arterial pressure) versus sham and BDL+vehicle [4] | Compound | change (decrease) in mean arterial blood pressure [3] | biliary thickening (bile duct wall thickness) ([4]; BDL mice, day 9, H&E sections and quantitative analysis, FIG. 2 and 3)
1 | > 30000 | 140 | not different | COc1ccc2c(c1)CN(c1nccc(-c3nccc(/C=C/c4ccncc4)n3)n1)C2 [Ex. 1, (E)-5-Methoxy-2-(4-(2-(pyridine-4-yl)vinyl)-[2,4′-bipyrimidin]-2′-yl)isoindoline] | did not cause any change | reduction in biliary thickening
2 | > 30000 | > 30000 |  | COc1ccc2c(c1)CN(c1nccc(-c3nccc(/C=C/c4ccnc5ccccc45)n3)n1)C2 [Ex. 3, (E)-4-(2-(2′-(5-Methoxyisoindolin-2-yl)-[2,4′-bipyrimidin]-4-yl)vinyl)quinoline] |  | 
3 | 8000 | 1800 |  | COc1ccc2c(c1)CN(c1nccc(-c3nccc(/C=C/c4ccnc5[nH]ccc45)n3)n1)C2 [Ex. 4, (E)-4-(2-(2′-(5-Methoxyisoindolin-2-yl)-[2,4′-bipyrimidin]-4-yl)vinyl)-1H-pyrrolo[2,3-b]pyridine] |  | 
4 | > 30000 | 2000 |  | COc1ccc2c(c1)CN(c1nccc(-c3nccc(/C=C/c4ccnc(N)n4)n3)n1)C2 [Ex. 5, (E)-4-(2-(2′-(5-Methoxyisoindolin-2-yl)-[2,4′-bipyrimidin]-4-yl)vinyl)pyrimidin-2-amine] |  | 
5 | > 30000 | 120 |  | Oc1ccc2c(c1)CN(c1nccc(-c3nccc(/C=C/c4ccncc4)n3)n1)C2 [Ex. 6, (E)-2-(4-(2-(Pyridin-4-yl)vinyl)-[2,4′-bipyrimidin]-2′-yl)isoindolin-5-ol] |  | 
6 | > 30000 | 910 |  | O=S(=O)(Oc1ccc2c(c1)CN(c1nccc(-c3nccc(/C=C/c4ccncc4)n3)n1)C2)C(F)(F)F [Ex. 7, (E)-2-(4-(2-(Pyridin-4-yl)vinyl)-[2,4′-bipyrimidin]-2′-yl)isoindolin-5-yl Trifluoromethanesulfonate] |  | 
7 | 680 | 110 |  | N#Cc1ccc2c(c1)CN(c1nccc(-c3nccc(/C=C/c4ccncc4)n3)n1)C2 [Ex. 8, (E)-2-(4-(2-(Pyridin-4-yl)vinyl)-[2,4′-bipyrimidin]-2′-yl)isoindoline-5-carbonitrile] |  | 
8 | 2400 | 85 |  | CN(C)CCOc1ccc2c(c1)CN(c1nccc(-c3nccc(/C=C/c4ccncc4)n3)n1)C2 [Ex. 9, (E)-N,N-Dimethyl-2-((2-(4-(2-(pyridin-4-yl)vinyl)-[2,4′-bipyrimidin]-2′-yl)isoindolin-5-yl)oxy)ethanamine] |  | 
9 | 1100 | 110 |  | CNC(=O)COc1ccc2c(c1)CN(c1nccc(-c3nccc(/C=C/c4ccncc4)n3)n1)C2 [Ex. 11, (E)-N-Methyl-2-((2-(4-(2-(pyridin-4-yl)vinyl)-[2,4′-bipyrimidin]-2′-yl)isoindolin-5-yl)oxy)acetamide] |  | 
10 | 15000 | 180 |  | CCNC(=O)COc1ccc2c(c1)CN(c1nccc(-c3nccc(/C=C/c4ccncc4)n3)n1)C2 [Ex. 12, (E)-N-Ethyl-2-((2-(4-(2-(pyridin-4-yl)vinyl)-[2,4′-bipyrimidin]-2′-yl)isoindolin-5-yl)oxy)acetamide] |  | 
11 | 13000 | 130 |  | CC(C)NC(=O)COc1ccc2c(c1)CN(c1nccc(-c3nccc(/C=C/c4ccncc4)n3)n1)C2 [Ex. 13, (E)-N-Isopropyl-2-((2-(4-(2-(pyridin-4-yl)vinyl)-[2,4′-bipyrimidin]-2′-yl)isoindolin-5-yl)oxy)acetamide] |  | 
12 | 26000 | 1200 |  | Fc1ccc2c(c1)CN(c1nccc(-c3nccc(/C=C/c4ccncc4)n3)n1)C2 [Ex. 14, (E)-5-Fluoro-2-(4-(2-(pyridine-4-yl)vinyl)-[2,4′-bipyrimidin]-2′-yl)isoindoline] |  | 
13 |  |  | decreased MAP | O=S(=O)(c1cccc2cnccc12)N1CCCNCC1 [fasudil, reference compound] | ~26 mm Hg | 
